The record followed here is the supplement of paper PMC11208160.
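Also: IS621 recombinase and bridge RNA in Escherichia coli cells.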

The nature of the series: recombinant barcode read abundance after kanamycin selection (control-corrected) (log10(CPM+1)); higher = more efficient recombination; sequences stand for … in AGTGCAGAGAAAATCGGCCAGTTTTCTCTGCCTGCAGTCCGCATGCCGT…AGATTTATGCAGCGGACTGCCTTTCTCCCAAAGTGATAAACCGGACAGTATCATGGACCGGTTTTCCCGGTAATCCGTATTTGCAAGGTTGGTTTCACT; site = the 11-nt target. In a few lines: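 Values are log10(CPM+1) from a pooled E. coli screen of targets paired with IS621 bridge RNA target-binding loops. Recombination efficiency here means counts per million of recombinant-junction barcodes, averaged and control-corrected. Plates were chloramphenicol/ampicillin LB agar for the control and chloramphenicol/ampicillin/kanamycin with 0.1 mM IPTG, two replicates each.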
With “ATGTGCTCTTGGGTTCTAACCTGTTGCCT (site ACGTGCTCTAG)”, the “recombinant barcode read abundance (log10)” value was determined as 0.253.

“ATGTGCTCTTGGGTTCTAACCTGTTGCCT (site AGGTGCTCTAG)”: the “recombinant barcode read abundance (log10)” value came out at 0.22.

Turning to “ATGTGCTCTTGGGTTCTAACCTGTTGCCT (site ATGTGCTCTAG)”, the “recombinant barcode read abundance (log10)” value was 2.07.

As for “ATGTTAGCTTGGGTTCTAACCTGTTGCCT (site ATGTAGGCTAG)”, the “recombinant barcode read abundance (log10)” value is 0.208.

Turning to “ATGTTAGCTTGGGTTCTAACCTGTTGCCT (site ATGTTAGCTAG)”, the “recombinant barcode read abundance (log10)” value worked out at 1.65.

“ATTCGAGCTTGGGTTCTAACCTGTTGCAT (site ATTCGAGCTAT)”: the “recombinant barcode read abundance (log10)” value was found to be 1.18.

Take “ATTCGAGCTTGGGTTCTAACCTGTTGCAT (site CGGGCGTCTTA)”: the “recombinant barcode read abundance (log10)” value was determined as 0.203.

“ATTCGGCCTTGGGTTCTAACCTGTTGCCT (site AGTCGGCCTAG)”: the “recombinant barcode read abundance (log10)” value turned out to be 0.038.

In the case of “ATTCGGCCTTGGGTTCTAACCTGTTGCCT (site ATTCGGCCTAG)”, the “recombinant barcode read abundance (log10)” value is 0.0683.

“ATTGCTCCTTGGGTTCTAACCTGTTGCCT (site ATTGCTCCTAG)”: the “recombinant barcode read abundance (log10)” value stood at 0.416.

In the case of “ATTGCTCCTTGGGTTCTAACCTGTTGCCT (site ATTGGTCCTAT)”, the “recombinant barcode read abundance (log10)” value amounted to 0.126.

With “ATTGCTCCTTGGGTTCTAACCTGTTGCTT (site ATTGCTCCTAA)”, the “recombinant barcode read abundance (log10)” value worked out at 0.106.

With “ATTGCTCCTTGGGTTCTAACCTGTTGCTT (site GGTGCTCCTAA)”, the “recombinant barcode read abundance (log10)” value was found to be 0.722.

For the sequence “ATTGGTCCTTGGGTTCTAACCTGTTGCCT (site ATAGGTCCTAG)”, the “recombinant barcode read abundance (log10)” value turned out to be 0.994.

As for “ATTGGTCCTTGGGTTCTAACCTGTTGCCT (site ATCGGTCCTAG)”, the “recombinant barcode read abundance (log10)” value is 0.27.

For “ATTGGTCCTTGGGTTCTAACCTGTTGCCT (site ATGGGTCCTAG)”, the “recombinant barcode read abundance (log10)” value is 0.187.

Consider “ATTGGTCCTTGGGTTCTAACCTGTTGCCT (site ATTGGTCCTAG)”, for which the “recombinant barcode read abundance (log10)” value came out at 1.66.

Take “ATTGGTTCTTGGGTTCTAACCTGTTGCCT (site ATTGGATCTAG)”: the “recombinant barcode read abundance (log10)” value was determined as 0.114.

For “ATTGGTTCTTGGGTTCTAACCTGTTGCCT (site ATTGGCTCTAG)”, the “recombinant barcode read abundance (log10)” value came to 0.104.

For the sequence “ATTGGTTCTTGGGTTCTAACCTGTTGCCT (site ATTGGGTCTAG)”, the “recombinant barcode read abundance (log10)” value is 0.0515.

For “ATTGGTTCTTGGGTTCTAACCTGTTGCCT (site ATTGGTTCTAG)”, the “recombinant barcode read abundance (log10)” value turned out to be 1.22.

Consider “ATTTGAACTTGGGTTCTAACCTGTTGCCT (site ATTTGAACTAG)”, for which the “recombinant barcode read abundance (log10)” value was determined as 0.086.

In the case of “ATTTGAACTTGGGTTCTAACCTGTTGCCT (site ATTTGCACTAG)”, the “recombinant barcode read abundance (log10)” value was 0.0882.

With “ATTTGAACTTGGGTTCTAACCTGTTGCCT (site ATTTGGACTAG)”, the “recombinant barcode read abundance (log10)” value was 0.148.

Consider “ATTTGAACTTGGGTTCTAACCTGTTGCCT (site ATTTGTACTAG)”, for which the “recombinant barcode read abundance (log10)” value was determined as 0.101.

Consider “ATTTGACCTTGGGTTCTAACCTGTTGCCG (site ACTTGACCTCT)”, for which the “recombinant barcode read abundance (log10)” value came out at 0.205.

Regarding “ATTTGACCTTGGGTTCTAACCTGTTGCCG (site ATTTGACCTCG)”, the “recombinant barcode read abundance (log10)” value was determined as 0.67.

Turning to “ATTTGAGCTTGGGTTCTAACCTGTTGCTG (site ATTTGAGCTCA)”, the “recombinant barcode read abundance (log10)” value worked out at 0.732.

With “ATTTGAGCTTGGGTTCTAACCTGTTGCTG (site GTATGAGCTCA)”, the “recombinant barcode read abundance (log10)” value worked out at 0.0966.

As for “CAAAAGGCTTGGGTTCTAACCTGTTGCCG (site CAAAAGGCTCG)”, the “recombinant barcode read abundance (log10)” value came out at 1.18.

“CAAAAGGCTTGGGTTCTAACCTGTTGCCG (site GTGTCCTCTAC)”: the “recombinant barcode read abundance (log10)” value is 0.239.

Regarding “CAAACACCTTGGGTTCTAACCTGTTGCTT (site CAAACACCTAA)”, the “recombinant barcode read abundance (log10)” value was 0.712.

With “CAAACACCTTGGGTTCTAACCTGTTGCTT (site CAACCACCTAA)”, the “recombinant barcode read abundance (log10)” value is 0.0879.

For the sequence “CAAACACCTTGGGTTCTAACCTGTTGCTT (site CAAGCACCTAA)”, the “recombinant barcode read abundance (log10)” value is 0.0323.

Turning to “CAAACACCTTGGGTTCTAACCTGTTGCTT (site CAATCACCTAA)”, the “recombinant barcode read abundance (log10)” value was found to be 0.426.

Consider “CAAACCTCTTGGGTTCTAACCTGTTGCAC (site CAAACCTCTGT)”, for which the “recombinant barcode read abundance (log10)” value turned out to be 1.97.

Consider “CAAACCTCTTGGGTTCTAACCTGTTGCAC (site TCTTAGACTTC)”, for which the “recombinant barcode read abundance (log10)” value stood at 0.0456.

On to “CAAAGCCCTTGGGTTCTAACCTGTTGCCT (site CAAAGCCCTAG)”, for which the “recombinant barcode read abundance (log10)” value stood at 1.9.

With “CAAAGCCCTTGGGTTCTAACCTGTTGCCT (site CGGAGCCCTAG)”, the “recombinant barcode read abundance (log10)” value turned out to be 0.349.

As for “CAACCGACTTGGGTTCTAACCTGTTGCCT (site CAACCGACTAG)”, the “recombinant barcode read abundance (log10)” value is 1.61.

With “CAACCGACTTGGGTTCTAACCTGTTGCCT (site CAACCGCCTAG)”, the “recombinant barcode read abundance (log10)” value was determined as 0.265.

On to “CAACCGACTTGGGTTCTAACCTGTTGCCT (site CAACCGGCTAG)”, for which the “recombinant barcode read abundance (log10)” value turned out to be 0.0866.

Turning to “CAACCGACTTGGGTTCTAACCTGTTGCCT (site CAACCGTCTAG)”, the “recombinant barcode read abundance (log10)” value was determined as 0.0239.

Regarding “CAACCGCCTTGGGTTCTAACCTGTTGCCT (site CAACCGACTAG)”, the “recombinant barcode read abundance (log10)” value is 0.411.

As for “CAACCGCCTTGGGTTCTAACCTGTTGCCT (site CAACCGCCTAG)”, the “recombinant barcode read abundance (log10)” value stood at 1.43.

Turning to “CAACCGCCTTGGGTTCTAACCTGTTGCCT (site CAACCGGCTAG)”, the “recombinant barcode read abundance (log10)” value came out at 0.402.

Regarding “CAACCGCCTTGGGTTCTAACCTGTTGCCT (site CAACCGTCTAG)”, the “recombinant barcode read abundance (log10)” value stood at 0.864.

As for “CAACCTACTTGGGTTCTAACCTGTTGCCT (site CAACCTACTAG)”, the “recombinant barcode read abundance (log10)” value worked out at 0.586.

For “CAACCTACTTGGGTTCTAACCTGTTGCCT (site CAATCTACTAG)”, the “recombinant barcode read abundance (log10)” value came to 0.121.

For “CAACTTCCTTGGGTTCTAACCTGTTGCGT (site CAACTTCCTAC)”, the “recombinant barcode read abundance (log10)” value came to 1.18.

On to “CAACTTCCTTGGGTTCTAACCTGTTGCGT (site CGGCTTCCTAC)”, for which the “recombinant barcode read abundance (log10)” value came to 0.496.

For the sequence “CAAGACGCTTGGGTTCTAACCTGTTGCCT (site CAAGACGCTAG)”, the “recombinant barcode read abundance (log10)” value came to 1.4.

For the sequence “CAAGACGCTTGGGTTCTAACCTGTTGCCT (site CTAGACGCTAG)”, the “recombinant barcode read abundance (log10)” value is 1.34.

“CAAGATGCTTGGGTTCTAACCTGTTGCCT (site CAAGATGCTAG)”: the “recombinant barcode read abundance (log10)” value was 1.21.

Turning to “CAAGATGCTTGGGTTCTAACCTGTTGCCT (site CACGATGCTAG)”, the “recombinant barcode read abundance (log10)” value stood at 0.304.

As for “CAAGATGCTTGGGTTCTAACCTGTTGCCT (site CAGGATGCTAG)”, the “recombinant barcode read abundance (log10)” value is 0.222.

For the sequence “CAAGATGCTTGGGTTCTAACCTGTTGCCT (site CATGATGCTAG)”, the “recombinant barcode read abundance (log10)” value amounted to 0.366.

“CAAGATTCTTGGGTTCTAACCTGTTGCCT (site CAAGATTCTAG)”: the “recombinant barcode read abundance (log10)” value worked out at 1.69.

As for “CAAGATTCTTGGGTTCTAACCTGTTGCCT (site CCAGATTCTAG)”, the “recombinant barcode read abundance (log10)” value was determined as 0.71.

For “CAAGATTCTTGGGTTCTAACCTGTTGCCT (site CGAGATTCTAG)”, the “recombinant barcode read abundance (log10)” value came out at 0.

For “CAAGATTCTTGGGTTCTAACCTGTTGCCT (site CTAGATTCTAG)”, the “recombinant barcode read abundance (log10)” value came to 0.6.

With “CAAGTGACTTGGGTTCTAACCTGTTGCCT (site CAAGTGACTAG)”, the “recombinant barcode read abundance (log10)” value came out at 1.68.

As to “CAAGTGACTTGGGTTCTAACCTGTTGCCT (site TCCTATGCTTA)”, the “recombinant barcode read abundance (log10)” value was found to be 0.129.

As to “CAAGTGCCTTGGGTTCTAACCTGTTGCCT (site CAAGTGCCTAG)”, the “recombinant barcode read abundance (log10)” value was determined as 2.01.

With “CAAGTGCCTTGGGTTCTAACCTGTTGCCT (site CAAGTTCCTAG)”, the “recombinant barcode read abundance (log10)” value was 0.064.

As to “CAAGTTCCTTGGGTTCTAACCTGTTGCCT (site CAAGTGCCTAG)”, the “recombinant barcode read abundance (log10)” value was found to be 0.62.

For “CAAGTTCCTTGGGTTCTAACCTGTTGCCT (site CAAGTTCCTAG)”, the “recombinant barcode read abundance (log10)” value came out at 1.03.

As to “CAATACACTTGGGTTCTAACCTGTTGCCT (site CAATACACTAG)”, the “recombinant barcode read abundance (log10)” value was found to be 2.34.

Regarding “CAATACACTTGGGTTCTAACCTGTTGCCT (site CCACACACTAG)”, the “recombinant barcode read abundance (log10)” value worked out at 0.0608.

“CAATCGTCTTGGGTTCTAACCTGTTGCTT (site CAATCGTCTAA)”: the “recombinant barcode read abundance (log10)” value is 0.629.

Take “CAATCGTCTTGGGTTCTAACCTGTTGCTT (site GAATCTTCTAA)”: the “recombinant barcode read abundance (log10)” value was 0.0659.

Consider “CAATCTGCTTGGGTTCTAACCTGTTGCCT (site CAATCTGCTAG)”, for which the “recombinant barcode read abundance (log10)” value came to 0.233.

“CAATCTGCTTGGGTTCTAACCTGTTGCCT (site CACTCTGCTAG)”: the “recombinant barcode read abundance (log10)” value was found to be 0.0111.

Regarding “CAATCTGCTTGGGTTCTAACCTGTTGCCT (site CAGTCTGCTAG)”, the “recombinant barcode read abundance (log10)” value was found to be 0.101.

With “CAATCTGCTTGGGTTCTAACCTGTTGCCT (site CATTCTGCTAG)”, the “recombinant barcode read abundance (log10)” value came out at 0.0288.

Consider “CAATGCTCTTGGGTTCTAACCTGTTGCCT (site CAATGCTCTAG)”, for which the “recombinant barcode read abundance (log10)” value was found to be 1.84.

Take “CAATGCTCTTGGGTTCTAACCTGTTGCCT (site CAGTGCTCTTG)”: the “recombinant barcode read abundance (log10)” value was 0.113.
